Assay: in vitro drug release (elution) in PBS at 37° C.
Assay type: physicochemical
Settings: docetaxel powder, milled vs unmilled
Protocol: Using docetaxel as the example drug, and 10:10:80 PEG10K:PLGA5050:Doce as the baseline formulation for comparison, we show below various novel formulations that can increase in vitro drug elution rates as tested in PBS at 37° C. 10:10:80 PEG10K:PLGA5050:Doce was the formulation that was evaluated in our preclinical studies. Average cumulative drug release % values with linear trend line from the first 14 days were plotted, as shown in FIG. 114. • Baseline=PEG:PLGA:Doce 10:10:80 Rod • Fast=PEG:PLGA:Doce 50:10:40 Rod • Faster=PEG:Doce 60:40 Rod • Raw docetaxel powder, milled or unmilled • Fastest=PEG:Doce 1:1 Particles
The mechanism of how each of these novel formulations can achieve increased in vitro drug release rate compared to the baseline 10:10:80 PEG10K:PLGA5050:Doce formulation is explained below. We have developed multiple formulations with tunable drug release rates that takes advantage of either decreasing hydrophobicity (by increasing PEG content) or introducing predominantly molecularly dispersed drug into the polymer matrix.

CC(=O)O[C@@]12CO[C@@H]1C[C@H](O)[C@@]1(C)C(=O)[C@H](O)C3=C(C)[C@@H](OC(=O)[C@H](O)[C@@H](NC(=O)OC(C)(C)C)c4ccccc4)C[C@@](O)([C@@H](OC(=O)c4ccccc4)[C@H]21)C3(C)C [docetaxel]
dissolution rate after milling: does not significantly increase dissolution rate even after milling
